In ChEMBL document CHEMBL1201862, “PubChem BioAssay data set” (2004):
Each block holds one compound with its values, some of them ahead of it. The source made the active and inactive calls.

Tests used:
[1] = target: Prothrombin (Homo sapiens, UniProt P00734); test: Thrombin 1536 HTS Dose Response Confirmation. [Related pubchem assays: 1046 (Thrombin 1536 HTS; hits were confirmed in this assay)]; format: functional
[2] = target: T1, Coagulation factor XII (Homo sapiens, UniProt P00748); format: functional;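 also: activated factor XIIa alpha cleaving a fluorogenic AMC peptide substrate; inhibitor potency from loss of enzyme activity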
T1 sequence (P00748 whole entry): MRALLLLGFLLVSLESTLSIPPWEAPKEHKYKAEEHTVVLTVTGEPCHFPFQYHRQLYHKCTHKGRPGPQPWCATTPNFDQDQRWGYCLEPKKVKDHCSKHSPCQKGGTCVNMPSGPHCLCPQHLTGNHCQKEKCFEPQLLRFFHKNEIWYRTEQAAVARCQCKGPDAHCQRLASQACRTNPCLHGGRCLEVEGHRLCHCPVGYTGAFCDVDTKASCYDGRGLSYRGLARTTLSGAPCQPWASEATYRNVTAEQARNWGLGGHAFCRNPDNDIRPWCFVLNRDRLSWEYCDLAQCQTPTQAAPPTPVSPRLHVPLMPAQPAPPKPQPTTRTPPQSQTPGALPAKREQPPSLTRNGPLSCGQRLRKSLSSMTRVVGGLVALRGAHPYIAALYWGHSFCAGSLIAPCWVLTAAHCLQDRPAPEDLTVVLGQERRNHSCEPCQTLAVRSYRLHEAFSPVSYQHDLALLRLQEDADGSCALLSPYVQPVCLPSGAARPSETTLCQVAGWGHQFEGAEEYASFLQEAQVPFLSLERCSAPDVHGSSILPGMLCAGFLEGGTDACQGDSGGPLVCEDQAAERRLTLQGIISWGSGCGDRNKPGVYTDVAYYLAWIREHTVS

[3] = target: Paired box protein Pax-8 (Homo sapiens, UniProt Q06710); test: PAX8 transcriptional activity inhibition in RMG-I – RMG-I cells, luciferase, cherry-pick, dose response (AID 687027); format: functional, cell-based;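 also: luciferase reporter driven by Pax8 target thyroperoxidase promoter measured by SteadyGlo luminescence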
[4] = OVCAR-3 cell viability loss – plate reader, dry powder samples, PAX8 inhibitor project, dose response (AID 743044); format: functional, cell-based
[5] = OVCAR8 cell viability loss – plate reader, dry powder samples, PAX8 project, dose response (AID 743197); format: functional, cell-based; settings: OVCAR-8
[6] = growth inhibition of yeast DHODH-expressing 3D7 parasites – SYBR Green, dry powder samples, dose response (AID 1159570); format: functional, cell-based;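 also: parasite growth measured after 72 hours of compound exposure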
[7] = P. falciparum Dd2 growth inhibitors, dose response, SYBR Green, cherry-picked samples (AID 1159567); format: functional, cell-based
[8] = Dd2 malaria parasite growth inhibition potency – SYBR Green, dry powder samples, dose response (AID 1159566); format: functional, cell-based;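 also: potency for growth inhibition with lower SYBR green DNA signal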
[9] = growth inhibition of PfATP4-mutant resistant parasites – NITD609-resistant line, SYBR Green, dry powder, dose response (AID 1159571); format: functional, cell-based;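 also: parasites synchronized at ring stage by sorbitol before testing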
[10] = target: T2, Histone-lysine N-methyltransferase NSD2 (Homo sapiens, UniProt O96028); format: biochemical
T2 sequence (O96028 whole entry): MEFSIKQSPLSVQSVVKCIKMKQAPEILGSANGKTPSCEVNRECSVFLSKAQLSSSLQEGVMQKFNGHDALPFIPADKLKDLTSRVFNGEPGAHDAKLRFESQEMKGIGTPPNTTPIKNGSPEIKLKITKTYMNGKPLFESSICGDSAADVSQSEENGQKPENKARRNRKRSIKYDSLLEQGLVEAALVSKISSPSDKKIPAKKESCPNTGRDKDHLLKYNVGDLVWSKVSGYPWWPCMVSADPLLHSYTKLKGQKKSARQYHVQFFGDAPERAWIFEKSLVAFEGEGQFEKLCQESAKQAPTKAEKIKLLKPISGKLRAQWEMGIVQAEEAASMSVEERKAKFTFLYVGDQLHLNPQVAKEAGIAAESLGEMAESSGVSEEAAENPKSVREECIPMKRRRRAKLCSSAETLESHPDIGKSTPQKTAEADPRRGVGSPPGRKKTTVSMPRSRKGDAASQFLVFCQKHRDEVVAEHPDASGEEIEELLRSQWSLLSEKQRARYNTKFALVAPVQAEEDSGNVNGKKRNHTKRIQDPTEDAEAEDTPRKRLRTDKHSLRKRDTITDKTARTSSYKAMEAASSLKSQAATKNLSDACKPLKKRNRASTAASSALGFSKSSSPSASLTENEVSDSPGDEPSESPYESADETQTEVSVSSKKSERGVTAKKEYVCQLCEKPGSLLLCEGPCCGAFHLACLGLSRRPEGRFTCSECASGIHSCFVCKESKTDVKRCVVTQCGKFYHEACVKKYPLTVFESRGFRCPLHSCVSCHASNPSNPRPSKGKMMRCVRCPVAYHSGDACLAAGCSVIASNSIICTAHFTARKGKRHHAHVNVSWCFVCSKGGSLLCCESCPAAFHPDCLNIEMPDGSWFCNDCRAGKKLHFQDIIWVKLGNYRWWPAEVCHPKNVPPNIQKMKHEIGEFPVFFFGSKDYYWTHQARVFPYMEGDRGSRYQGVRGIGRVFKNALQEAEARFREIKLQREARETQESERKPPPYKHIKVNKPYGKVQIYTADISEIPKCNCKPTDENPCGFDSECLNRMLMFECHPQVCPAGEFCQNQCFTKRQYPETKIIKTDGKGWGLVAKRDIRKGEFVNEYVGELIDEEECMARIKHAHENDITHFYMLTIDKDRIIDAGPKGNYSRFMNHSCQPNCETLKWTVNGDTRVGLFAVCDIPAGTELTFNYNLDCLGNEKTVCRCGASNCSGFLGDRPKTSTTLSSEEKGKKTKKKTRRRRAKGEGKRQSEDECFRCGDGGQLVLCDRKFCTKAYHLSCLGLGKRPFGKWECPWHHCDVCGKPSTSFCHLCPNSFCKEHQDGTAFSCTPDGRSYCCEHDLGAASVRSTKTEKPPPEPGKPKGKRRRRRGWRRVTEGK

[11] = test system: Streptococcus sp. 'group A'; test: Streptococcus pyogenes SK(-)GAS viability under kanamycin – luminescence, BacTiterGlo, confirmation, counter-screen for streptokinase expression inhibitor project, dose response (AID 1900); format: functional, organism-based
[12] = test system: Streptococcus; test: GAS UMAA2166 growth inhibition – luminescence, BacTiterGlo, counter-screen for streptokinase expression inhibitor project, dose response (AID 1915); format: functional, organism-based;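 also: potency for reduction of bacterial viability or growth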
[13] = test system: INS1; test: INS-1E survival protection against cytokine death – cell-based, luminescence, retest, dose response (AID 449756); format: functional; settings: Rattus norvegicus;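 also: cell death triggered by IL-1 beta plus TNF-alpha plus IFN-gamma mixture; protective hits raise ATP signal compared with cytokine alone wells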
[14] = target: T3, Leucine aminopeptidase (Plasmodium falciparum 3D7, UniProt Q8IL11); test: P. falciparum M17LAP inhibitors, primary screen, biochemical, fluorogenic H-Leu-NHMec substrate, 1536-well (AID 1619); format: functional
T3 sequence (Q8IL11 whole entry): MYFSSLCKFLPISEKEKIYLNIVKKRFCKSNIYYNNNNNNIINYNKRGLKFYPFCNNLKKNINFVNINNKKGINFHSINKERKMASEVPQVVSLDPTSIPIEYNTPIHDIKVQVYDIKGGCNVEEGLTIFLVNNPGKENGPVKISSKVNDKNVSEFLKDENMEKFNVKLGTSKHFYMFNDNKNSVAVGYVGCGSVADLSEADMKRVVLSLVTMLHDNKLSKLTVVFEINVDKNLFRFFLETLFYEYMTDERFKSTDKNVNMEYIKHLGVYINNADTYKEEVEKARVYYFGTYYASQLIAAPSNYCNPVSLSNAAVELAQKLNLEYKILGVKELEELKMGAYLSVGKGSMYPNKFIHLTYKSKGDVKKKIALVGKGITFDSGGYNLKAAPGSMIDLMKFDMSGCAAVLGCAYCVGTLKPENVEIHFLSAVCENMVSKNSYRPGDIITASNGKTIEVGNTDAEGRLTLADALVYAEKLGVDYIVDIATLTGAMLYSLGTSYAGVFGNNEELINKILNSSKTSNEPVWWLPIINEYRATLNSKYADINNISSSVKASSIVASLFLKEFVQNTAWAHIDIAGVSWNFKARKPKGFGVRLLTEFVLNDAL

[15] = target: T4, Aminopeptidase N (Plasmodium falciparum FcB1/Columbia, UniProt O96935); test: malaria alanyl aminopeptidase activity blockers – biochemical, fluorogenic H-Leu-NHMec substrate, 1536-well (AID 1445); design: species or system Plasmodium falciparum 3D7, 3D7
T4 sequence (O96935 whole entry): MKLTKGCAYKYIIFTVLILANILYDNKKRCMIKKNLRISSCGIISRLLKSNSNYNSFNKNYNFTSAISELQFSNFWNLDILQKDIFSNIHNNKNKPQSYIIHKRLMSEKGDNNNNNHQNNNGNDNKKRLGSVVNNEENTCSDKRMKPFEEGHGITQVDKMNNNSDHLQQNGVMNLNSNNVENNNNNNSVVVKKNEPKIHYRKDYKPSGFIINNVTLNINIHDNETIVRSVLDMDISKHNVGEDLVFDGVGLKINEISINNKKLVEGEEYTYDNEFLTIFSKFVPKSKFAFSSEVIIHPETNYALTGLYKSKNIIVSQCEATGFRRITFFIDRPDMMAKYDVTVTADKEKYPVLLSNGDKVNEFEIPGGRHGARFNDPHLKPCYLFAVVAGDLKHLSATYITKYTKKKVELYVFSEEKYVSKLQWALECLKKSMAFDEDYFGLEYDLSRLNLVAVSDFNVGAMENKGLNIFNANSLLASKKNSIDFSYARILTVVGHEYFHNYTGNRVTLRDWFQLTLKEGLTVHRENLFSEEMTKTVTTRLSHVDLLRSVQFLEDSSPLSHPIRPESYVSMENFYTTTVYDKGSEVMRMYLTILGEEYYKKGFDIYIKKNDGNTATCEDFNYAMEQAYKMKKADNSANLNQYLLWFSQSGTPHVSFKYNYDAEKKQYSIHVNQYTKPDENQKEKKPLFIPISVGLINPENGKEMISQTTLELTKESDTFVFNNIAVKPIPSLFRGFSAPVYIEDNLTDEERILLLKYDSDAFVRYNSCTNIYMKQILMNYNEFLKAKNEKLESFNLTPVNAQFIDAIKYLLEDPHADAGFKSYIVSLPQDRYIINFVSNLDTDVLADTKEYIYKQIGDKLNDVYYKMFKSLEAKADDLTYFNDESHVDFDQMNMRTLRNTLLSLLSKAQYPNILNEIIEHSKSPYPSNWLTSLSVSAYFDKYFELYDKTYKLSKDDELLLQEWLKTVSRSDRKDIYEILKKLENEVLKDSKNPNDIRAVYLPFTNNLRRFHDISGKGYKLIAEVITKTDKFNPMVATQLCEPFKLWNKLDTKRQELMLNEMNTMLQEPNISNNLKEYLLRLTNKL

[16] = target: T5, Dual specificity protein phosphatase 6 (Rattus norvegicus, UniProt Q64346); test: inhibition of rat DUSP6 enzyme activity – biochemical, in vitro, primary screen (AID 425)
T5 sequence (Q64346 whole entry): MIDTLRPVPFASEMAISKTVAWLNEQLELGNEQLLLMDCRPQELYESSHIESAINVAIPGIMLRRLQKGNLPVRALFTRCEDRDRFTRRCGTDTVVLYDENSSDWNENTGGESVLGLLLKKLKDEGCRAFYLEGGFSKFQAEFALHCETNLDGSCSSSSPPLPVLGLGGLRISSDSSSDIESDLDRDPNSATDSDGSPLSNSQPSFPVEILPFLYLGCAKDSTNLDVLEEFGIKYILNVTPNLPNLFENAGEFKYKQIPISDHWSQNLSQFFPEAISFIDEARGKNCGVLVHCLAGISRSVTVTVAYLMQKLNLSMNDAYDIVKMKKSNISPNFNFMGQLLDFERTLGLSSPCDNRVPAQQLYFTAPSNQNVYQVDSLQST

Chain of Paired box protein Pax-8 (Q06710 whole entry): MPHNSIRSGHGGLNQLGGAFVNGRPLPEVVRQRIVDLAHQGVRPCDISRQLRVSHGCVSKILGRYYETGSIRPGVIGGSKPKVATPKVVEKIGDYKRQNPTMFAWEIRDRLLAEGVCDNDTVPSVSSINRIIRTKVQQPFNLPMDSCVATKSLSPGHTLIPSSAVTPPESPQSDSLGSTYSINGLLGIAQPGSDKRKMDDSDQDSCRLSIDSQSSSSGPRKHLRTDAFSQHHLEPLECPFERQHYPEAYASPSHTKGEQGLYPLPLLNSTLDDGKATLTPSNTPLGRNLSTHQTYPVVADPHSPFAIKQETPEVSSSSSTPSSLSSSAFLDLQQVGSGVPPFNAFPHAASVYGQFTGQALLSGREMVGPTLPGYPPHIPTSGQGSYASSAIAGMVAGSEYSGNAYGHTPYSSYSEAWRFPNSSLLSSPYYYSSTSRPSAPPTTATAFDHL

SMILES: Cc1ccc(S(=O)(=O)N(C)C[C@H]2Oc3cc(C#Cc4ccncc4)ccc3S(=O)(=O)N([C@@H](C)CO)C[C@@H]2C)cc1
AC50 [3]: 2.52 µM (active)
AC50 [4]: 49.1 µM (active)
AC50 [5]: > 70 µM (inactive)
AC50 [6]: 1.37 µM (active)
AC50 [7]: 1.68 µM (active)
AC50 [8]: 1.41 µM (active)
AC50 [9]: 1.64 µM (active)

SMILES: Cc1noc(C)c1S(=O)(=O)Nc1ccc2c(c1)C(=O)N([C@@H](C)CO)C[C@H](C)[C@@H](CN(C)C(=O)Nc1ccc(C(F)(F)F)cc1)OCCCC[C@H](C)O2
AC50 [3]: 4.92 µM (active)
AC50 [4]: 30.9 µM (active)
AC50 [5]: > 70 µM (inactive)

SMILES: CCN(CC)CCCNc1ncnc2scc(-c3ccc(F)cc3)c12
AC50 [10]: > 20 µM (inactive)

SMILES: COc1ccc(NC(=O)N2CCCCN3[C@@H](CO)[C@H](c4ccc(C#Cc5ccccn5)cc4)[C@@H]3C2)cc1
AC50 [6]: 0.116 µM (active)
AC50 [7]: < 0.3 µM (active)
AC50 [8]: 0.155 µM (active)
AC50 [9]: 0.132 µM (active)

SMILES: Cn1c(SCC(=O)NC2CCCC2)nnc1-c1ccc(S(=O)(=O)N2CCOCC2)cc1
IC50 [1]: > 50 µM (not active)

SMILES: O=C(N/N=C/c1cccc(F)c1)c1c(O)nc2ccccc2c1O
EC50 [11]: 2.87 µM (active)
IC50 [1]: > 50 µM (not active)
EC50 [12]: 3.03 µM (active)
AC50 [13]: 3.63 µM (active)

SMILES: O=C(c1ccc(-c2ccccc2)cc1)N1CCN(Cc2ccccn2)CC1
IC50 [16]: > 100 µM (not active)

More lines, now with the values ahead:

IC50 [1]: > 50 µM (not active)
IC50 [2]: > 50 µM (inactive)
SMILES: O=C(N/N=C/c1ccc(OCc2cnc(Cl)s2)cc1)c1ccncc1

IC50 [1]: > 50 µM (not active)
SMILES: N#Cc1sc2nc(-c3ccccc3)cc(C(F)(F)F)c2c1N

AC50 [10]: > 20 µM (inactive)
SMILES: C=CCNCCCCOc1ccccc1

IC50 [14]: 32.6 µM (active)
IC50 [15]: 10.4 µM (active)
AC50 [10]: 10.4 µM (active)
SMILES: Cc1ccc(C)c(N2C(=N)S/C(=C\c3ccc(-c4ccccc4C(=O)O)o3)C2=O)c1

IC50 [16]: > 100 µM (not active)
SMILES: COC(=O)c1ccccc1NC(=O)Nc1cc(C)cc(C)n1
